# Where “and” joins values, the source holds several entries; their conditions need not be identical. Equal entries are not always repeated.
# Columns and labels:
# [1] = parameters: method as in PMID 26604135; settings: cited from earlier work
# C2C12 cells = experiment: Cytotoxicity / cell viability (CCK-8); format: cell-based, murine; settings: C2C12 myoblasts, 0.1–100 μM, 5 h treatment
# Method: C2C12 myocytes were cultured in DMEM that was supplemented with 10% fetal bovine serum, 1% penicillin, 1% streptomycin and 1% glutamine and were maintained at 37 °C in 5% CO2/95% air. Cell viability was evaluated by measuring the succinic dehydrogenases activity in the cell suspension using the cell counting Kit-8 (CCK-8) (Sigma Aldrich), which utilizes a highly water-soluble tetrazolium salt and whose detection sensitivity is higher than other tetrazolium salts.
# Cells were seeded in 96-well cultures at a density of approximately 4.5 × 10^3 cells per well and then cultured for 16 h. Afterwards, the cells were treated for 5 h with free DAS (in DMSO <0.15% in order to ensure cellular vitality) or complexed with HP-β-CD, but at the same concentration calculated on the basis of the incorporation degree, both being dissolved in DMEM. Following exposure, 10 μL of CCK-8 were added into each well and then the plate was incubated for additional two hours. The absorbance at 450 nm was measured using a spectrophotometer (microplate reader Victor V31420–40; PerkinElmer, Wellesley, Massachusetts). […] The results are expressed as the percentage of the control and presented as the mean ± SD. Each data is from 24–48 replicates (wells) and 6–9 different culture dishes.
# [2] = DAS solubility at 25 °C in different environments; format: physicochemical; settings: pH 6, Water (ultrapure, pH about 6.0)
# Method: (§1) The phase solubility study was conducted in accordance with Higuchi and Connors. In detail, DAS was added in excess to an aqueous solution containing HP-β-CD in the appropriate concentration (0–10% w/v) until saturation and the suspensions thus obtained were placed in 4 mL vials with screw cap to avoid changes that are caused by evaporation. The obtained mixtures were vortexed for about 5 min and then placed in a thermostat bath at 25 °C for three days.
# (§2) Subsequently, an aliquot of the aqueous phase of each mixture was transferred into a 5 mL glass syringe and filtered through a 0.22 μm cellulose acetate membrane filter (Millipore®, Milan, Italy).
# (§3) The obtained filtrate was suitably diluted and subjected to subsequent HPLC analysis for the quantification of the drug. All of the determinations were conducted in triplicate.
# [3] = Phase solubility study of DAS with HP-β-CD in water (Higuchi-Connors); format: physicochemical; settings: 25 °C
# Method: as §1, §2, §3
# The obtained data were used to determine the apparent stability 1:1 constant (K1:1) of the DAS/HP-β-CD inclusion complex, using the slope of the phase solubility diagrams straight line, as reported by Higuchi and Connors in the following equation:(1) K1:1=slope/S0(1−slope) where S0 represents DAS solubility in absence of cyclodextrin determined in the same way.
# [4] = known values, no reference given; cited from earlier work
# cancer cell growth = settings: no reference given; cited from earlier work
# Src-TK = system: Src-TK; parameters: method as in PMID 25658745; settings: cited from earlier work
# [5] = Pharmacokinetic analysis of DAS in quadriceps and liver after oral treatment; format: in vivo, C57Bl/6J mice; settings: DAS/HP-β-CD inclusion complex 15 mg/kg in drinking water for 1 week, WT mice
# Method: A total of 10 sedentary WT male mice C57Bl/6J (Charles River, Italy for Jackson Laboratories), homogeneous for age and body weight (BW) were divided into 2 groups as follows: 4 WT mice vehicle-treated (HP-β-CD 10%) and 6 WT mice treated with DAS/HP-β-CD inclusion complex at the dose of 15 mg/Kg. Drug and vehicle were administered in drinking water for 1 week.
# In detail, analysis was performed in quadriceps (Quad) and livers of treated animals. Tissues were individually weighed into a "FastPrep" tube and PBS was added (3:1 ratio). Each tube was placed in the fast prep homogenizer on a predetermined 1min cycle to ensure complete homogenization. 40 µL of each homogenate was aliquoted to a fresh tube and 50 µL of MeOH plus 150 µL of Methanol-containing Internal standard (25 ng/mL Imipramine HCl) was added. Each sample was mixed on a Bioshake for 1 min and then transferred to the freezer at −20 °C for at least two hours prior centrifugation at 2500 × g for 20 min. The supernatants were then transferred to a 96-well plate for sampling by the LC-MS/MS. A Thermo TSQ Quantiva with Thermo Vanquish UHPLC system was used (Thermo Fisher Scientific Inc, Milan, Italy). […] Quantitative analysis was conducted by MRM at 232.06 to 401.11 m/z for DAS inclusion complex and at 86.10 to 193.04 m/z for the internal standard Imipramine. […]
# [6] = Dissolution studies at 37 °C (BIODIS USP III apparatus); format: physicochemical; settings: HCl 0.05 M pH 1.2, 37 °C, after approximately 420 min
# Method: Dissolution experiments were performed at 37 °C using a BIODIS USP III apparatus (Varian Inc., Cary North Carolina, CA, USA), equipped with a rod stirrer maintaining a rotational speed of 100 rpm during the test. Samples of DAS or DAS/HP-β-CD solid complex, equivalent to about 2 mg of DAS, were suspended in the dissolution medium (80 mL of 0.05 M phosphate buffer at pH 7.4 or HCl 0.05 M pH = 1.2). The volume of 80 mL was chosen taking into account the HPLC quantification limit for the determination of DAS.
# At predetermined time intervals, 600 µL of suspension were collected and, in order to keep constant the initial volume, 600 μL of the same dissolution medium previously thermostated at the same temperature were added. Samples were subsequently filtered using a 0.22 µm membrane filter (Millipore® cellulose acetate), and the filtrates thus obtained were subjected to HPLC analysis after appropriate dilution. For quantitative analysis the calibration curve previously constructed was used and the dissolution profiles shown correspond to the average of three determinations.
smiles,measurement,setting,value
"Cc1nc(Nc2ncc(C(=O)Nc3c(C)cccc3Cl)s2)cc(N2CCN(CCO)CC2)n1 [DAS, N-(2-chloro-6-methylphenyl)-2-[[6-[4-(2-hydroxyethyl)piperazin-1-yl]-2-methylpyrimidin-4-yl]amino]-1,3-thiazole-5-carboxamide]",pKa,[1],10.28
same,cytotoxic effect on cell viability,C2C12 cells,cytotoxic only at high concentrations
same,solubility at 3 days,[2]; read-out: DAS Solubility,1.33 µM
same,solubility at 3 days,[2]; read-out: DAS Solubility (mg/mL),0.000649 mg/mL
same,1:1 apparent formation (complexation) constant K1:1,"[3]; DAS with HP-β-CD, from linear portion (0–6% HP-β-CD) of the phase solubility diagram",922.13 M⁻¹
same,solubility at 3 days,"[3]; aqueous HP-β-CD solution, aqueous with cosolvent or surfactant or cyclodextrin, thermodynamic from solid, 6% w/v of HP-β-CD, read-out: DAS aqueous solubility in the presence of HP-β-CD",29 µM and 14 µg/mL
same,therapeutic plasma levels,[4],low µM values
same,IC50 values known to inhibit cancer cell growth,cancer cell growth,nM range
same,"inhibition of Src-TK, concentration range",Src-TK,nanomolar range
same,DAS levels in quadriceps and livers,[5],Appreciable drugs’ levels were found in quadriceps and livers
same,quantity of drug dissolved,[6],approximately 81%

# — PMC6386909, “Dasatinib/HP-β-CD Inclusion Complex Based Aqueous Formulation as a Promising Tool for the Treatment of Paediatric Neuromuscular Disorders” (International Journal of Molecular Sciences, 2019)
